Laboratory results as given in US4410537A, “Pharmaceutical ethers” (Burroughts Wellcome Co., priority 1979, dated 1983).

Assays:
haemoglobin [1] = test: Effect on the oxygen-dissociation curve of whole rat blood in vivo; conditions: for Mean p50: 1 hour, rat
Protocol: (§1) Compound (Ia) was dissolved in isotonic saline containing sodium bicarbonate 25 mM. […] The mixtures were incubated (30 mins, 37° C.) and the oxygen-dissociation curve for each then measured using a whole-blood spectrophotometer (Hem-O-Scan, Trade Name).
Female albino rats (100-120 g) were fasted for 24 hrs with water available ad lib. Compound (Ia) was dissolved in isotonic saline containing sodium bicarbonate 25 mM and administered to two rats orally (500 mg/kg) and to two rats intravenously (100 mg/kg): appropriate vehicle controls were administered simultaneously to control animals. After 1 hour all animals were exsanguinated via the abdominal aorta under chloroform anaesthesia: 2.5 ml of blood from each was mixed with disodium edetate (anticoagulant) and the oxygen-dissociation curve of each sample measured as in (A).

[2] = Acute oral toxicity in mice; conditions: mouse, in vivo, solution in sodium bicarbonate-saline
anaesthetized rats = test: Cardiovascular effects in anaesthetized rats; format: in vivo, rat
Protocol: Male Wistar rats weighing between 250-350 g were used. Anaesthesia was induced with 3-5% halothane in oxygen and maintained with a mixture of chloralose (60 mg/kg i.v.) and pentobarbitone (20 mg/kg i.v.). A femoral vein was cannulated for the administration of drugs and the ipsilateral femoral artery for measuring arterial blood pressure; heart rate was derived from the femoral pulse by a cardiotachometer. Body temperature was maintained at 38° C.
Five test rats were each given a series of increasing doses of compound (Ia) as a solution in 10%-saturated sodium bicarbonate (saturated sodium bicarbonate solution diluted 1:9). Sufficient time was allowed between doses for the variables to return either to the pre-dose level or to a steady state if full recovery was not attained. Measurements were made 2 mins. after dose or at maximum effect.
Control rats (3) were given a series of 0.2 ml. injections of the sodium bicarbonate vehicle (up to 15 injections) to assess any effect of sodium bicarbonate and of increasing extracellular fluid volume on blood pressure and heart rate.

haemoglobin [3] = test: Effect on the oxygen-dissociation curve of whole homozygous human sickle-cell blood in vitro; format: cell-based
Protocol: Compound (Ia) was dissolved in isotonic saline containing sodium bicarbonate 25 mM. […]
Homozygous human sickle-cell blood (4 vols) was mixed with acid-citrate-dextrose anticoagulant (1 vol) and a portion of the mixture set aside as a control.

haemoglobin [4] = test: Effect on the oxygen-dissociation curve of whole rat blood in vitro; format: cell-based
Protocol: as §1
Blood (6.5 ml) from an adult albino rat, exsanguinated via the abdominal aorta under ether anaesthesia, was mixed with acid-citratedextrose anticoagulant (1.5 ml). […] Both samples were incubated (30 mins, 37° C.) and the oxygen-dissociation curve of each measured as in (A).

haemoglobin [5] = test: Effect on the oxygen-dissociation curve of whole normal human blood in vitro; format: cell-based; conditions: for Mean p50: normal human blood, 30 mins, 37° C., control 26.0
Protocol: as §1

[6] = system: whole homozygous human sickle-cell blood; test: Effect on sickling in vitro of whole homozygous human sickle-cell blood; format: cell-based; conditions: 3.0 mM, 60 mins, oxygen tension about 28 mm Hg; about 50% sickled at start; controls nearly 70%

SMILES: O=Cc1c(O)cccc1OCCCCC(=O)O [Example 1, 5-(2-formyl-3-hydroxyphenoxy)pentanoic acid]
- Mean p50 (haemoglobin [1]; 100 mg/kg i.v., vehicle 43.37): 22.37 mm. Hg
- Mean p50 (haemoglobin [1]; 500 mg/kg p.o., vehicle 42.75): 10.25 mm. Hg
- displacement of the oxygen-dissociation curve (haemoglobin [1]; whole rat blood in vivo): considerable left-displacement
- LD50 [2]: ~1000 mg/kg
- change in blood pressure (anaesthetized rats; 32-128 mg/kg i.v., anaesthetized rats): Significant dose-dependent falls in pressure
- change in heart rate (anaesthetized rats; after the 64 mg/kg dose, three rats, not statistically significant): slight tachycardia
- change in heart rate (anaesthetized rats; anaesthetized rats, i.v.): no marked changes in heart rate
- time of blood pressure recovery after each dose (anaesthetized rats; anaesthetized rats, i.v.): ≤ 15 min
- change in systolic, diastolic or mean blood pressures (anaesthetized rats; up to 16 mg/kg i.v., anaesthetized rats): no appreciable change
- Mean p50 (haemoglobin [3]; 3.0 mM, homozygous sickle-cell blood, 37° C., minimum 45 mins, three patients, control 51): 10 mm. Hg
- displacement of the oxygen-dissociation curve (haemoglobin [3]; whole homozygous (SS genotype) human sickle-cell blood in vitro): considerable left-displacement
- Mean p50 (haemoglobin [4]; 3.0 mM, rat blood in vitro, 30 mins, 37° C., control 44.5): 8.2 mm. Hg
- displacement of the oxygen-dissociation curve (haemoglobin [4]; whole rat blood in vitro): considerably left-displaced
- Mean p50 (haemoglobin [5]; 0.3 mM): 25.5 mm. Hg
- Mean p50 (haemoglobin [5]; 1.0 mM): 21.5 mm. Hg
- Mean p50 (haemoglobin [5]; 3.0 mM): 9.0 mm. Hg
- displacement of the oxygen-dissociation curve (haemoglobin [5]; whole normal human blood in vitro): dose-related left-displacement
- proportion of sickled cells [6]: about 3%
